Source: patent US6413997B1, “3-(substituted phenyl)-5-(substituted heterocyclyl)-1,2,4-triazole compounds” (priority 1998, dated 2002)

What follows are compounds tested on cotton aphids (aphis gossypii) (assay: Insecticidal test for cotton aphid, foliar spray on infested squash cotyledons). Conditions: 50 ppm spray, graded after 3 days, versus untreated check.
Format: in vivo
Procedure: Insecticidal Test for Cotton Aphid (Aphis gossypii)
To prepare spray solutions, 2 mg of each test compound was dissolved into 2 mL of a 90:10 acetone:ethanol solvent. This 2 mL of chemical solution was added to 38 mL of water containing 0.05% Tween 20 surfactant to produce a 50 ppm spray solution.
Squash cotyledons were infested with cotton aphid (all life stages16-20 hours prior to application of spray solution. The solution was sprayed on both sides of each infested squash cotyledon (0.5 mL×2 each side with a sweeping action using a total of 2 mL of spray solution. The plants were allowed to air dry and held for 3 days in a controlled room at 26° C. and 40% RH after which time the test was graded. Grading was by actual count using a dissecting microscope and comparison of test counts to the untreated check. Results are given in Table 1 as percent control based on population reduction versus the untreated.

SMILES | CA: activity at 50 ppm against cotton aphids (rating of % mortality / percent control)
Cc1cc(-c2nc(-c3c(F)cccc3F)nn2C)nn1C [Compound 71] | A (91-100)
Cc1cc(-c2nc(-c3c(F)cccc3Cl)nn2C)nn1C [Compound 72] | A (91-100)
Cn1nc(-c2c(F)cccc2F)nc1-c1cnn(C)c1[N+](=O)[O-] [Compound 78] | A (91-100)
Cn1nc(-c2c(F)cccc2F)nc1-c1cnn(-c2ccc(Cl)cc2)c1C(F)(F)F [Compound 79] | A (91-100)
Cn1nc(-c2c(F)cccc2F)nc1-c1ccc(Br)n1C [Compound 85] | B (81-90)
Cn1nc(-c2c(F)cccc2F)nc1-c1cc(Br)c(Br)n1C [Compound 86] | A (91-100)

These compounds were tested on sweetpotato whitefly (bemisia tabaci) (assay: Sweetpotato whitefly test on cotton plants under laboratory conditions). Conditions: 800 ppm (table footnote), spray on cotton plants with eggs, 21 days, spent pupal cases versus solution-only plants.
Format: in vivo
Procedure: Evaluation of Tests Compounds on Sweetpotato Whitefly (Bemisia tabacia) Under Laboratory Conditions
Four mg of each test compound was dissolved by adding 5 ml of a 90:10 acetone:ethanol solvent mixture to the vial containing the sample compound. […]
Five-week-old cotton plants reared in a greenhouse were stripped of all foliage except for the two uppermost true leaves that were greater than 5 cm in diameter. These plants were then placed into a laboratory colony of whiteflies for three days for oviposition by the colony females. All whiteflies were then removed from the test plants with pressurized air. The spray solution was then applied to the test plants with a hand-held syringe fitted with hollow cone nozzle. One mL spray solution was applied to each leaf top and bottom for a total of 4 mL per plant. Four replications of each test compound utilized a total of 16 mL spray solution. Plants were air dried and then placed in a holding chamber (26° C. and 40% RH for 21 days. Compound efficacy was evaluated by counting, under a dissecting microscope, the number of spent pupal cases per leaf. A spent pupal case represents a whitefly egg that has undergone full development to achieve adult status, thus indicating lack of control.
Percent control based on reduction of spent pupal cases of a test compound compared to solution-only (no test compound sprayed plants is reported in Table 1.

SMILES | WF: activity at 800 ppm against sweetpotato whitefly (rating of % mortality / percent control)
Cc1cc(-c2nc(-c3c(F)cccc3F)nn2C)nn1C [Compound 71] | G (Inactive)
Cc1cc(-c2nc(-c3c(F)cccc3Cl)nn2C)nn1C [Compound 72] | G (Inactive)
Cn1nc(-c2c(F)cccc2F)nc1-c1cnn(C)c1[N+](=O)[O-] [Compound 78] | G (Inactive)
Cn1nc(-c2c(F)cccc2F)nc1-c1cnn(-c2ccc(Cl)cc2)c1C(F)(F)F [Compound 79] | G (Inactive)
Cn1nc(-c2c(F)cccc2F)nc1-c1ccc(Br)n1C [Compound 85] | G (Inactive)
Cn1nc(-c2c(F)cccc2F)nc1-c1cc(Br)c(Br)n1C [Compound 86] | G (Inactive)

These compounds were tested on twospotted spider mite (tetranychus uriticae) (assay: Two-spotted spider mite test, ovicide method on cotton leaf discs). Conditions: leaf disc dip, 6 days, hatched larvae versus untreated discs.
Format: in vivo
Procedure: Insecticidal Test for Two-spotted Spider Mite (Tetranychus urticae)
Ten adult female two-spotted spider mites were placed on eight 2.2 cm leaf discs of cotton leaf, allowed to oviposit over 24 hours, and thereafter removed. The leaf discs were immersed in 100 ppm test solutions for 3 seconds, then allowed to dry with sixteen discs left untreated as a negative control. Discs were placed on an agar substrate and held at 24° C. and 90% relative humidity for 6 days.

SMILES | TSSM: activity at 100 ppm against twospotted spider mite (rating of % mortality / percent control)
Cc1cc(-c2nc(-c3c(F)cccc3F)nn2C)nn1C [Compound 71] | G (Inactive)
Cc1cc(-c2nc(-c3c(F)cccc3Cl)nn2C)nn1C [Compound 72] | C (71-80)
Cn1nc(-c2c(F)cccc2F)nc1-c1cnn(C)c1[N+](=O)[O-] [Compound 78] | A (91-100)
Cn1nc(-c2c(F)cccc2F)nc1-c1cnn(-c2ccc(Cl)cc2)c1C(F)(F)F [Compound 79] | G (Inactive)
Cn1nc(-c2c(F)cccc2F)nc1-c1ccc(Br)n1C [Compound 85] | E (51-60)
Cn1nc(-c2c(F)cccc2F)nc1-c1cc(Br)c(Br)n1C [Compound 86] | G (Inactive)
